From patent publication US12023421B2, “Medical devices for continuous delivery of therapeutic agents” (Adenopaint LLC, priority 2019, dated 2024)
In brackets after ≈: the same amount, converted by molar mass. Values belong to the molecule of their own block, whether it stands above or below them.

Columns and labels:
[1] = cited from earlier work
coronary flow velocity = details: continuous infusion into the LAD at 50 μg/kg/min; previous studies; cited from earlier work
[2] = In vitro release studies in 0.9% saline at 37° C. (Example 6); assay type: physicochemical
Protocol: In vitro release studies were performed in 0.9% saline rather than in plasma or blood because adenosine has a short half-life (seconds) in the latter two media making detection difficult. Tubes containing 15 ml saline were maintained at 37° C. and 10 cm of the spaced coiled section of the guidewire was placed serially in tubes for 0 to 5, 5 to 10, 10 to 20, 20 to 30, 30 to 40, 40 to 50, and 50 to 60 minutes. One ml samples were then taken from the tube to measure the concentration of adenosine by spectrophotometry (Jackson E K, Mi Z, Koehler M T, Carcillo J A Jr, Herzer W A. Injured erythrocytes release adenosine deaminase into the circulation. J Pharmacol Exp Ther 1996; 279: 1250-60).

[3] = In vitro drug elution from coated guidewires in phosphate-buffered saline at 37° C. (UV 260 nm); assay type: physicochemical
Protocol: FIG. 4 illustrates representative time release of a therapeutic agent, adenosine, from the distal 10 cm of three guidewires with two coats of PVA/PVP polymer cured with 2 freeze/thaw cycles. The inner therapeutic coat was a 7.5% (w/w) of PVA/PVP with 1.5 mg of adenosine added as described in the application. The outer barrier layer was made of 10.0% (w/w) of PVA/PVP. The guidewire was placed in a beaker containing phosphate-buffered saline at 37° C. that was constantly stirred with a magnetic device. Samples were taken periodically from the beaker and analyzed for adenosine amount by UV spectrophotometry (absorption at 260 nm). Note the complete elution of the drug in a curvilinear fashion over 60 minutes.
Note that elution was more rapid with greater than 90% eluted over 20 minutes.
FIG. 6 illustrates a representative example of an extremely rapid elution of another drug diltiazem utilizing a polymer with a ratio of PVA/PVAC and two freeze/thaw cycles. The drug was completely eluted over 10 minutes.
Utilizing the same protocol as Example 1, the freeze/thaw cycles were increased to 3-8 and the barrier concentration was increased to 15.0% (w/w). Utilizing adenosine as the prototype therapeutic agent the elution profile was increased with the majority of drug elution occurring in 30 min.

[4] = Particle size stability of jet-milled adenosine in hydrogel (laser diffraction and optical microscopy); assay type: physicochemical; details: after one week in the hydrogel; particles less than 5 microns
Protocol: Next, the inner drug layer was prepared. In this regard, a 20% w/w solution of PVA/PVP (99:1 mass ratio) in DI water was prepared and autoclaved for 1 hr while stirring. This yielded a supersaturated solution which was homogeneous and free of bubbles. Using a water bath, the temperature of the PVA/PVP solution was maintained at 65° C. In order to create a sufficient drug load on the wire, a 25% concentration of adenosine was used in the drug layer. Adenosine has poor solubility in water ([…]) and commercial adenosine has a mean particle size of 55 microns which would have compromised the lubricity of the wire. Utilizing a two-pass jet-milling process, the solid phase adenosine particles were reduced in size to less than 5 microns. Micronized adenosine was mixed in DI water, sonicated for 15 min and then added to the PVA/PVP mixture and the PVA/PVP/adenosine mixture was stirred until a homogeneous solution was obtained. […] Next, the guidewire coated with the PEG-silanol primer was coated with the adenosine-containing hydrogel. Multiple hydroxyl groups in the hydrogel form hydrogen bonds with multiple ether oxygens in the primer, thus creating an extensive network of hydrogen bonds between the drug-containing hydrogel layer and the primer layer (FIG. 14, Reaction 4).

[5] = in plasma or blood; cited from earlier work
Yucatan mini-pigs = assay: Acetylcholine-induced coronary vasoconstriction (no-reflow) in the pig (Example 6, second protocol); assay type: in vivo; details: 0.3 to 1.0 mg/min infused into the LAD for 20 to 30 min; preliminary studies
Protocol: Animal Studies: All porcine studies were approved by Institutional Animal Care and the Committee of Synchrony Labs LLC, NC. Yucatan mini pigs (25 to 30 Kg) were premeditated with Telazol (5 mg/Kg). Anesthesia was maintained with 1% isoflurane and supplemental oxygen to maintain a pH of 7.4±0.6. Animals received aspirin 300 mg orally for three days prior to the study and were anticoagulated throughout the procedure with heparin (150 units/kg) to maintain ACT greater than 300. Heart rate, EKG changes and blood pressure were monitored continuously utilizing leads I, AVF and AVL with a 6 F sheath in the left femoral artery. […] Coronary blood flow velocity (CFV) was measured utilizing a 0.014-inch Doppler flowwire (Combowire, Volcano Corporation, Rancho Cordova, CA, USA) and dedicated software. CFV was measured as a continuous average pulse wave velocity over 4 seconds and mean values were recorded every 60 seconds.
In the second protocol the ability of the wire to prevent and reverse intense vasoconstriction induced by intracoronary administration of acetylcholine (Ach) was evaluated. […] In other experiments, we evaluated whether an adenosine-releasing wire could prevent the NRF by placing the adenosine-loaded wire initially into the LAD. […]
For statistical analyses, data are expressed as mean±SEM. […]

time by which most of the remainder was released ([2]; Example 6 guidewires): ≤ 40 min
total amount of released adenosine ([2]; Example 6 guidewires (PVA/PVP drug layer, PVA/PVAc 1:3 barrier), over 60 min): 2.7±0.2 mg/10 cm length of wire
adenosine released in the first 20 min ([2]; Example 6 guidewires, relative to 60-min timepoint): approximately 60%
time in which the majority of drug elution occurred ([3]; Example 2, protocol of Example 1 with 3-8 freeze/thaw cycles and barrier concentration 15.0% (w/w)): 30 min
time of complete elution of the drug from guidewire ([3]; FIG. 4, distal 10 cm of guidewires, inner coat 7.5% (w/w) PVA/PVP with 1.5 mg adenosine, outer barrier 10.0% (w/w) PVA/PVP, 2 freeze/thaw cycles, curvilinear): 60 min
drug eluted over 20 minutes ([3]; FIG. 5, 8 freeze/thaw cycles, polymer 10% inner and 15% outer layer): greater than 90%
particle size stability in the hydrogel [4]: stable
Compound: Nc1ncnc2c1ncn2[C@@H]1O[C@H](CO)[C@@H](O)[C@H]1O [adenosine, Adenosine]
solubility in water [1]: 80 mg/mL (≈ 299 mM)
increase in CFV (coronary flow velocity): approximately 250%
release profile ([3]; FIG. 7, guidewires coated with polymer mixture of 3:1 and 1:1 ratios of PVAC to PVA): optimal for a typical coronary interventional procedure
half-life [5]: seconds

time of complete elution of the drug from guidewire ([3]; FIG. 6, polymer with a ratio of PVA/PVAC, two freeze/thaw cycles): 10 min
Compound: COc1ccc([C@@H]2Sc3ccccc3N(CCN(C)C)C(=O)[C@@H]2OC(C)=O)cc1 [diltiazem]

Compound: CC(=O)OCC[N+](C)(C)C [Ach, acetylcholine]
reduction in CBFV (Yucatan mini-pigs): ~80%
